Measured values published in ChEMBL document CHEMBL2046268 (Eur J Med Chem, 2012).
Calls of active or inactive are those of the source. The rule behind the calls is not given here. *1 amine or outer side, *2 acyl side, *3 side chain or, on linkers, in order; H or OH if unused. Where a SMILES comes first, the peptide text is derived from it. Bridges are numbered along the chain shown (N, C = ends). Roman numbers before positions name the chains, in order. [ ]: non-standard residue; d: D form. Actinocin(1to9) = Cc1c2oc3c(C)ccc(C(=O)[*:2])c3nc-2c(C(=O)[*:1])c(N)c1=O; NMeV = CN[C@H](C(=O)O)C(C)C; Sar = CNCC(=O)O

Columns and labels:
HeLa [1] = assay: Induction of apoptosis in human HeLa cells assessed as DNA fragmentation at 2 uM after 48 hrs by agarose gel electrophoresis; format: functional, cell-based
Caspase-3 (Homo sapiens) [2] = biological target: T1, Caspase-3 (Homo sapiens) (UniProt P42574); assay: Induction of caspase 3 activation in human HeLa cells using Ac-DEVD-pNA at 2 uM after 4 hrs by Bradford assay; format: cell-based
T1 sequence (whole entry): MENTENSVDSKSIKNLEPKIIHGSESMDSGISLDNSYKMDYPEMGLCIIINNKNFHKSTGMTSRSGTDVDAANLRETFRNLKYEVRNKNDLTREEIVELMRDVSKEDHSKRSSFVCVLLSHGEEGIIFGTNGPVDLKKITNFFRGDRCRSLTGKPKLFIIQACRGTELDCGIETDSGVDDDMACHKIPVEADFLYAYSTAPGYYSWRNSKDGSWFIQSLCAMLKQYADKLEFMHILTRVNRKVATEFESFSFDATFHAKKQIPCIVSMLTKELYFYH

HeLa [3] = assay: Cytotoxicity against human HeLa cells assessed as cell viability after 48 hrs by MTT assay; format: functional, cell-based
A549 [4] = assay: Cytotoxicity against human A549 cells assessed as cell viability after 48 hrs by MTT assay; format: functional, cell-based; details: A549, 48 h
HeLa [5] = assay: Cytotoxicity against human HeLa cells assessed as cell viability after 72 hrs by MTT assay; format: functional, cell-based
A549 [6] = assay: Cytotoxicity against human A549 cells assessed as cell viability after 72 hrs by MTT assay; format: functional, cell-based; details: A549, 72 h
MCF7 [7] = assay: Cytotoxicity against human MCF7 cells assessed as cell viability after 48 hrs by MTT assay; format: functional, cell-based; details: MCF7, 48 h
MCF7 [8] = assay: Cytotoxicity against human MCF7 cells assessed as cell viability after 72 hrs by MTT assay; format: functional, cell-based; details: MCF7, 72 h
Vero [9] = assay: Cytotoxicity against african green monkey Vero cells assessed as cell viability after 48 hrs by MTT assay; format: cell-based; details: Chlorocebus sabaeus
Vero [10] = assay: Cytotoxicity against african green monkey Vero cells assessed as cell viability after 72 hrs by MTT assay; format: cell-based; details: Chlorocebus sabaeus
Vero [11] = assay: Selectivity index, ratio of IC50 for african green monkey Vero cells to IC50 for human MCF7 cells after 48 hrs
HeLa [12] = assay: Induction of apoptosis in human HeLa cells assessed as DNA fragmentation at 16 uM after 48 hrs by agarose gel electrophoresis; format: functional, cell-based
HeLa [13] = assay: Induction of apoptosis in human HeLa cells assessed as DNA fragmentation at 16 to 32 uM after 24 hrs by agarose gel electrophoresis; format: functional, cell-based
HeLa [14] = assay: Induction of apoptosis in human HeLa cells assessed as DNA fragmentation at 4 to 32 uM after 12 hrs by agarose gel electrophoresis; format: functional, cell-based
HeLa [15] = assay: Induction of apoptosis in human HeLa cells assessed as chromatin condensation at 8 uM after 12 hrs using Hoechst 33342 staining by fluorescence microscopic analysis; format: functional, cell-based
HeLa [16] = assay: Induction of apoptosis in human HeLa cells assessed as formation of apoptotic bodies at 8 uM after 12 hrs using Hoechst 33342 staining by fluorescence microscopic analysis; format: functional, cell-based
HeLa [17] = assay: Induction of apoptosis in human HeLa cells assessed as increase in sub-G1 DNA content at 24 uM after 12 hrs using Propidium iodide staining by flow cytometry; format: functional, cell-based
Caspase-3 (Homo sapiens) [18] = biological target: T1, Caspase-3 (Homo sapiens); assay: Induction of caspase 3 activation in human HeLa cells using Ac-DEVD-pNA after 4 hrs by Bradford assay; format: cell-based
Caspase-3 (Homo sapiens) [19] = biological target: T1, Caspase-3 (Homo sapiens); assay: Induction of caspase 3 activation in human HeLa cells using Ac-DEVD-pNA at 4 uM after 4 hrs by Bradford assay; format: cell-based
Caspase-3 (Homo sapiens) [20] = biological target: T1, Caspase-3 (Homo sapiens); assay: Induction of caspase 3 activation in human HeLa cells using Ac-DEVD-pNA at 8 uM after 4 hrs by Bradford assay; format: cell-based
Caspase-3 (Homo sapiens) [21] = biological target: T1, Caspase-3 (Homo sapiens); assay: Increase in caspase 3 activation in human HeLa cells using Ac-DEVD-pNA at 12 uM after 4 hrs by Bradford assay relative to control; format: cell-based
HeLa [22] = assay: Induction of apoptosis in human HeLa cells assessed as phosphatidylserine externalization at 2 to 16 uM using annexin/PI staining by fluorescence microscopy; format: functional, cell-based; details: TDE = time-dependent effect
HeLa [23] = assay: Induction of apoptosis in human HeLa cells assessed as necrotic cells at 2 to 16 uM using annexin/PI staining by fluorescence microscopy; format: functional, cell-based; details: TDE = time-dependent effect
HeLa [24] = assay: Induction of apoptosis in human HeLa cells assessed as early apoptotic cells at 2 to 4 uM up to 4 hrs using annexin/PI staining by fluorescence microscopy; format: functional, cell-based
HeLa [25] = assay: Induction of apoptosis in human HeLa cells assessed as phosphatidylserine externalization after 0.5 to 4 hrs using annexin/PI staining by fluorescence microscopy; format: functional, cell-based
HeLa [26] = assay: Induction of apoptosis in human HeLa cells assessed as necrotic cells after 0.5 to 4 hrs using annexin/PI staining by fluorescence microscopy; format: functional, cell-based
HeLa [27] = assay: Induction of apoptosis in human HeLa cells at 12 uM after 2 to 4 hrs using annexin/PI staining by fluorescence microscopy; format: functional, cell-based
Caspase-3 (Homo sapiens) [28] = biological target: T1, Caspase-3 (Homo sapiens); assay: Induction of caspase 3 activation in human HeLa cells using Ac-DEVD-pNA at 24 uM after 8 hrs by Bradford assay; format: cell-based
HeLa [29] = assay: Induction of apoptosis in human HeLa cells at 8 uM after 2 to 4 hrs using annexin/PI staining by fluorescence microscopy; format: functional, cell-based
HeLa [30] = assay: Induction of apoptosis in human HeLa cells at 16 uM after 2 to 4 hrs using annexin/PI staining by fluorescence microscopy; format: functional, cell-based
HeLa [31] = assay: Induction of apoptosis in human HeLa cells assessed as DNA fragmentation by agarose gel electrophoresis; format: functional, cell-based
HeLa [32] = assay: Induction of apoptosis in human HeLa cells assessed as phosphatidylserine externalization at 1 uM using annexin/PI staining by fluorescence microscopy; format: functional, cell-based; details: TDE = time-dependent effect
HeLa [33] = assay: Induction of apoptosis in human HeLa cells assessed as necrotic cells at 1 uM using annexin/PI staining by fluorescence microscopy; format: functional, cell-based; details: TDE = time-dependent effect

Structure (SMILES)	IC50 (HeLa [3]) [µM]	IC50 (A549 [4]) [µM]	IC50 (HeLa [5]) [µM]	IC50 (A549 [6]) [µM]	IC50 (MCF7 [7]) [µM]	IC50 (MCF7 [8]) [µM]	IC50 (Vero [9]) [µM]	IC50 (Vero [10]) [µM]	Ratio IC50 (Vero [11])	Activity (HeLa [12])	Activity (HeLa [13])	Activity (HeLa [14])	Activity (HeLa [15])	Activity (HeLa [16])	Activity (HeLa [17])	Activity (Caspase-3 (Homo sapiens) [18])	Activity (Caspase-3 (Homo sapiens) [19])	Activity (Caspase-3 (Homo sapiens) [20])	Activity (HeLa [25])	Activity (HeLa [26])	also measured
CN[C@@H]1C[C@H]2O[C@@](C)([C@@H]1OC)n1c3ccccc3c3c4c(c5c6ccccc6n2c5c31)C(=O)NC4																					Activity (HeLa [1]): Active; Activity (Caspase-3 (Homo sapiens) [2]): Active
CC1=C(CO)C(=O)O[C@@H]([C@@H](C)C2=CC[C@H]3[C@@H]4C[C@H]5O[C@]56[C@@H](O)C=CC(=O)[C@]6(C)[C@H]4CC[C@]23C)C1 [WITHARISTATIN]	3.5	4.2	2.7	2.3	1.2	0.3	3.4	2.6	2.8	inactive	inactive	inactive	Active	Active	Active	Dose-dependent effect	inactive	inactive	Dose-dependent effect	Dose-dependent effect	fold change (FC) (Caspase-3 (Homo sapiens) [21]): 1; Activity (HeLa [22]): tde; Activity (HeLa [23]): tde; Activity (HeLa [24]): Active
CC1=C(CO[Si](C)(C)C(C)(C)C)C(=O)O[C@@H]([C@@H](C)[C@H]2CC[C@H]3[C@@H]4C[C@H]5O[C@]56C(=O)C=CC(=O)[C@]6(C)[C@H]4CC[C@]23C)C1	1.7	5.3	2.1	2.9	0.5	0.2	3.1	4	6.2	inactive	inactive	inactive	Active	Active	Active	Dose-dependent effect	inactive	inactive	Dose-dependent effect	Dose-dependent effect	Activity (HeLa [27]): Active; Activity (Caspase-3 (Homo sapiens) [28]): Active; Activity (HeLa [22]): tde; Activity (HeLa [23]): tde; Activity (HeLa [29]): Active; Activity (HeLa [30]): Active
Cc1c2oc3c(C)ccc(C(=O)N[C@@H]4C(=O)N[C@H](C(C)C)C(=O)N5CCC[C@H]5C(=O)N(C)CC(=O)N(C)[C@@H](C(C)C)C(=O)O[C@@H]4C)c3nc-2c(C(=O)N[C@@H]2C(=O)N[C@H](C(C)C)C(=O)N3CCC[C@H]3C(=O)N(C)CC(=O)N(C)[C@@H](C(C)C)C(=O)O[C@@H]2C)c(N)c1=O [DACTINOMYCIN] (I: T[dV]P[Sar][NMeV] / II: T[dV]P[Sar][NMeV]; ester I:1-I:C, II:1-II:C; linker I:N-II:N via Actinocin(1to9))	0.0011	0.0072			0.024				3										Dose-dependent effect	Dose-dependent effect	Activity (HeLa [31]): Active; Activity (HeLa [32]): tde; Activity (HeLa [33]): tde
